For 4 molecules, residual activity results are on record in the kinase profiling compilation of Christmann-Franck et al. (2016).

The target of the first experiment is MAP3K11 (human) (UniProt Q16584). Put plainly: radiometric filter-binding kinase assay, Kinase HotSpot. Conditions: compound 0.5 µM; ATP 10 µM.
Sequence of MAP3K11 (human) (Q16584 whole entry, looked up): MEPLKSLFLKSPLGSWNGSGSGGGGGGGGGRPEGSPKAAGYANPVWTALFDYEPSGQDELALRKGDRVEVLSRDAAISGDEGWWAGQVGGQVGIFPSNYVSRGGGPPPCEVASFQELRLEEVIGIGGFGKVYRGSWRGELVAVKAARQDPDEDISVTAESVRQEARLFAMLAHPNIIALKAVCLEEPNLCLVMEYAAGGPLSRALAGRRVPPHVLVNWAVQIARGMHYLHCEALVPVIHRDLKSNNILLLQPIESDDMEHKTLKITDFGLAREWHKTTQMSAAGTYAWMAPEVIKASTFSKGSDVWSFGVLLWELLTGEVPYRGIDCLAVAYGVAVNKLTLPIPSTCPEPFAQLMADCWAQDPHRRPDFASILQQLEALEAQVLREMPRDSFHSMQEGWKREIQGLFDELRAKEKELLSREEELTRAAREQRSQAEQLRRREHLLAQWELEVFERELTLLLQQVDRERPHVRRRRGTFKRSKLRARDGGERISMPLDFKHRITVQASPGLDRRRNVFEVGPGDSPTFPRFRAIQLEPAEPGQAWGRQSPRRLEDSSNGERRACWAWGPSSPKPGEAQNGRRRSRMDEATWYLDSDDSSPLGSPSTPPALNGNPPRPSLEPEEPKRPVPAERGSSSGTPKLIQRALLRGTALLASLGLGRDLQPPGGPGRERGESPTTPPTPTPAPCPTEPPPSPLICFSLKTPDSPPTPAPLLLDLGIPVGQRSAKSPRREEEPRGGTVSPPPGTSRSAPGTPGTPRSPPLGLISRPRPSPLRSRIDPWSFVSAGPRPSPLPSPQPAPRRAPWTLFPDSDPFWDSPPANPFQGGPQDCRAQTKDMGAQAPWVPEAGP
The term residual activity denotes the signal under treatment as a percentage of the control signal. With `O=C1NC(=O)C(c2cn(CCCn3ccnc3)c3ccccc23)=C1Nc1ccccc1`, the residual activity was 13.3%.

Regarding `CNc1cc2c(Nc3cccc(Br)c3)ncnc2cn1`, the residual activity is 96.9%.

As to `Oc1cccc(-c2nc(N3CCOCC3)c3oc4ncccc4c3n2)c1`, the residual activity is 96.5%.

A further experiment deals with CSNK1E (human) (UniProt P49674). The description is as above. Conditions: compound 0.5 µM; ATP 10 µM.
For the molecule `O=C1NC(=O)C(c2cn(CCCn3ccnc3)c3ccccc23)=C1Nc1ccccc1`, the residual activity is 96.7%.

`CNc1cc2c(Nc3cccc(Br)c3)ncnc2cn1`: the residual activity worked out at 84.8%.

In the case of `Cc1ccc(Nc2nccc(N(C)c3ccc4c(C)n(C)nc4c3)n2)cc1S(N)(=O)=O`, the residual activity was found to be 97.5%.

`Oc1cccc(-c2nc(N3CCOCC3)c3oc4ncccc4c3n2)c1`: the residual activity turned out to be 87.1%.

For another experiment, the target named is WNK2 (human) (UniProt Q9Y3S1). The experiment is described as above. The following applies: compound 0.5 µM; ATP 10 µM.
Sequence of WNK2 (human) (Q9Y3S1 whole entry, looked up): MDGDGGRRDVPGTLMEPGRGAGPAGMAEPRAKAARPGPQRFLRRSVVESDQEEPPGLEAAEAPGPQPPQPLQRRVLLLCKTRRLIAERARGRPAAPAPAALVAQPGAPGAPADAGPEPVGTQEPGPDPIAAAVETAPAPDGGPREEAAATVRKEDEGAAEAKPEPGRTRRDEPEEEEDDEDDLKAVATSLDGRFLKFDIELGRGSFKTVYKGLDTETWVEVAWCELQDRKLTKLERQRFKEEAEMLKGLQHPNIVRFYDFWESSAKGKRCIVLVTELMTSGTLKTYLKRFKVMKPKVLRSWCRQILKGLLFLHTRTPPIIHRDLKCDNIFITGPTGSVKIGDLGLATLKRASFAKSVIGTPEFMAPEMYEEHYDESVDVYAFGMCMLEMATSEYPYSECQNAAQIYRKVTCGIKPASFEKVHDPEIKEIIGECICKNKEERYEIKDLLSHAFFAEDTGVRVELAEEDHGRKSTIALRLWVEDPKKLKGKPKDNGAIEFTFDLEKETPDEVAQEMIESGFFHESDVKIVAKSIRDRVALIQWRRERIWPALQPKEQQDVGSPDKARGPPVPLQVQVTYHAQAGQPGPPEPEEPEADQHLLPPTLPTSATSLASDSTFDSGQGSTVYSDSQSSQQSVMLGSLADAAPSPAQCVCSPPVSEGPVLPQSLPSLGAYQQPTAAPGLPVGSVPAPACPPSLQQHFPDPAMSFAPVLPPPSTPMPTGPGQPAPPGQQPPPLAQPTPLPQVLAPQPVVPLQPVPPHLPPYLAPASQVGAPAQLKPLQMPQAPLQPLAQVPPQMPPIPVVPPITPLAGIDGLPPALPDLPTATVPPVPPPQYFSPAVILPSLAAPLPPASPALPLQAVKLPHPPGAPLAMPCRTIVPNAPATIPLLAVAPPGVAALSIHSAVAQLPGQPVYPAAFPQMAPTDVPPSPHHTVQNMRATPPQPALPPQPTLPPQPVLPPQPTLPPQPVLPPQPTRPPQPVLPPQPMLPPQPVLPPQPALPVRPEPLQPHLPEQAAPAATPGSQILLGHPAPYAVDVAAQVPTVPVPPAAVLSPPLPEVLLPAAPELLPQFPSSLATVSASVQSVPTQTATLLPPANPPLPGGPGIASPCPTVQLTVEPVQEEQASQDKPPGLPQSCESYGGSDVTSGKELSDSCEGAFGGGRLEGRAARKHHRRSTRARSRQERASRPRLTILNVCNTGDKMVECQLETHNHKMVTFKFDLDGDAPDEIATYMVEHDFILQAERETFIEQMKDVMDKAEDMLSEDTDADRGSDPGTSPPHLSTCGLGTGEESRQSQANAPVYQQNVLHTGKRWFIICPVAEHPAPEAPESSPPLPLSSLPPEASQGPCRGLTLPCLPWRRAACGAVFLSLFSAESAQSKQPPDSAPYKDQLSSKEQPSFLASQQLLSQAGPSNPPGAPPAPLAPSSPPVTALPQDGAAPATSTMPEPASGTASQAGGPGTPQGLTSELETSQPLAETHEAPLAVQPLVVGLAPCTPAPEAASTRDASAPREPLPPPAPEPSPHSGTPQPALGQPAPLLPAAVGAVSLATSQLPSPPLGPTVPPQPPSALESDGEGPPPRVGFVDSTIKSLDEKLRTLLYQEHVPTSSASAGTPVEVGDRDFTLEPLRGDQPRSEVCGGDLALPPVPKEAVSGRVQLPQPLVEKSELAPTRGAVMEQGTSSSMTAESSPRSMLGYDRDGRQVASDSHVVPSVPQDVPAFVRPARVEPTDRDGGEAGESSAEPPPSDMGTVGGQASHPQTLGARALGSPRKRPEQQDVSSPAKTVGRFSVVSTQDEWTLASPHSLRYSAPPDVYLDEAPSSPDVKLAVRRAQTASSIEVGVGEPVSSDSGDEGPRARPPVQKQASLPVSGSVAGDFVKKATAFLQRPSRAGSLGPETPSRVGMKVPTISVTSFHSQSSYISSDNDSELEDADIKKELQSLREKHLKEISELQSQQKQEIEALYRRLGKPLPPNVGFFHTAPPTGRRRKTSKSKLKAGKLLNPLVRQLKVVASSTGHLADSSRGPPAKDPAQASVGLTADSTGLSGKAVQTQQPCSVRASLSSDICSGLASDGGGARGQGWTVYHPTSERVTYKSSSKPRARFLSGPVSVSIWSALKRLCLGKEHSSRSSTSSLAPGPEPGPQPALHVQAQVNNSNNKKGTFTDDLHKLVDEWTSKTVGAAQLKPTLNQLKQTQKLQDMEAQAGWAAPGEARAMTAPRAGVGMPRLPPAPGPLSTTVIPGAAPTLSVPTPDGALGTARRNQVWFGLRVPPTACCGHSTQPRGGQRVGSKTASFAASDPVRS
Regarding `O=C1NC(=O)C(c2cn(CCCn3ccnc3)c3ccccc23)=C1Nc1ccccc1`, the residual activity came to 99.8%.

`CNc1cc2c(Nc3cccc(Br)c3)ncnc2cn1`: the residual activity was 114%.

With `Cc1ccc(Nc2nccc(N(C)c3ccc4c(C)n(C)nc4c3)n2)cc1S(N)(=O)=O`, the residual activity amounted to 98.2%.

As for `Oc1cccc(-c2nc(N3CCOCC3)c3oc4ncccc4c3n2)c1`, the residual activity came to 119%.

In the next experiment the target is JAK2 JH1 JH2 (human) (UniProt O60674). The experiment is described as above. Conditions: compound 0.5 µM; ATP 10 µM.
In the case of `O=C1NC(=O)C(c2cn(CCCn3ccnc3)c3ccccc23)=C1Nc1ccccc1`, the residual activity was 84.3%.

Consider `CNc1cc2c(Nc3cccc(Br)c3)ncnc2cn1`, for which the residual activity stood at 82.1%.

On to `Cc1ccc(Nc2nccc(N(C)c3ccc4c(C)n(C)nc4c3)n2)cc1S(N)(=O)=O`, for which the residual activity came to 101%.

In the case of `Oc1cccc(-c2nc(N3CCOCC3)c3oc4ncccc4c3n2)c1`, the residual activity worked out at 92.6%.

A further experiment deals with PKN2 (human) (UniProt Q16513). The description is as above. Conditions: compound 0.5 µM; ATP 10 µM.
Sequence of PKN2 (human) (Q16513 whole entry, looked up): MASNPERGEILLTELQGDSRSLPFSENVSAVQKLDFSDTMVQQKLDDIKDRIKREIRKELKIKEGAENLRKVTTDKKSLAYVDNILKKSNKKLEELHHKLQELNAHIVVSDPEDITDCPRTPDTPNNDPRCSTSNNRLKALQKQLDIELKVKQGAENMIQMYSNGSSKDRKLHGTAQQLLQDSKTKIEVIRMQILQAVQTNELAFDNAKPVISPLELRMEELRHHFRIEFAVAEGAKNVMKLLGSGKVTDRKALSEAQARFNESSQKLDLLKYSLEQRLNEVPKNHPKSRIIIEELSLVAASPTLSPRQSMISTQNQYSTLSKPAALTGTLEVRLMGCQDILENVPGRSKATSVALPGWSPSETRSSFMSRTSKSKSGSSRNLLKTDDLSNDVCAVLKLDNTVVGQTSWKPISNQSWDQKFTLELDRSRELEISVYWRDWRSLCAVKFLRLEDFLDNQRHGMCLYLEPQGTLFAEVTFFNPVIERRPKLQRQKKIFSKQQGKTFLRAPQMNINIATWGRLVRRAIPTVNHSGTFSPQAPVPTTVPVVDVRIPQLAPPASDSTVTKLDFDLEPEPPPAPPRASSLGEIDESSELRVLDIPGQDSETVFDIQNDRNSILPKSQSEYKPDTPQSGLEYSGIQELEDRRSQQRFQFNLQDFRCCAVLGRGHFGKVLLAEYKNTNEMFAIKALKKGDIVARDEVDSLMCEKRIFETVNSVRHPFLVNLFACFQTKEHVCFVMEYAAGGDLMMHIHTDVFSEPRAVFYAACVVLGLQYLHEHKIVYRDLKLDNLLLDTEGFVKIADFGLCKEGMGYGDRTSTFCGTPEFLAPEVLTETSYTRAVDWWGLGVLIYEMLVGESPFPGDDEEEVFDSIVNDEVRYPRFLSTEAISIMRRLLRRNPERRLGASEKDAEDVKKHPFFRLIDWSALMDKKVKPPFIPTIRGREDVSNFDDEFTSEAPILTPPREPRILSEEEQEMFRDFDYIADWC
Take `O=C1NC(=O)C(c2cn(CCCn3ccnc3)c3ccccc23)=C1Nc1ccccc1`: the residual activity amounted to 76.9%.

For the molecule `CNc1cc2c(Nc3cccc(Br)c3)ncnc2cn1`, the residual activity came out at 102%.

In the case of `Cc1ccc(Nc2nccc(N(C)c3ccc4c(C)n(C)nc4c3)n2)cc1S(N)(=O)=O`, the residual activity turned out to be 106%.

In the case of `Oc1cccc(-c2nc(N3CCOCC3)c3oc4ncccc4c3n2)c1`, the residual activity worked out at 87.6%.

Another experiment has as its target MYLK (human) (UniProt Q15746). The experiment is described as above. Conditions: compound 0.5 µM; ATP 10 µM.
Take `O=C1NC(=O)C(c2cn(CCCn3ccnc3)c3ccccc23)=C1Nc1ccccc1`: the residual activity is 81.6%.

Take `CNc1cc2c(Nc3cccc(Br)c3)ncnc2cn1`: the residual activity worked out at 79.5%.

Regarding `Cc1ccc(Nc2nccc(N(C)c3ccc4c(C)n(C)nc4c3)n2)cc1S(N)(=O)=O`, the residual activity was 93%.

For the molecule `Oc1cccc(-c2nc(N3CCOCC3)c3oc4ncccc4c3n2)c1`, the residual activity was determined as 77.1%.

A further experiment concerns the target MAP3K14 (human) (UniProt Q99558). Described as above. Conditions: compound 0.5 µM; ATP 10 µM.
With `O=C1NC(=O)C(c2cn(CCCn3ccnc3)c3ccccc23)=C1Nc1ccccc1`, the residual activity came to 96.1%.

Turning to `CNc1cc2c(Nc3cccc(Br)c3)ncnc2cn1`, the residual activity is 126%.

`Cc1ccc(Nc2nccc(N(C)c3ccc4c(C)n(C)nc4c3)n2)cc1S(N)(=O)=O`: the residual activity came out at 104%.

In the next experiment the target is DDR2 (human) (UniProt Q16832). The description is as above. The following applies: compound 0.5 µM; ATP 10 µM.
Sequence of DDR2 (human) (Q16832 whole entry, looked up): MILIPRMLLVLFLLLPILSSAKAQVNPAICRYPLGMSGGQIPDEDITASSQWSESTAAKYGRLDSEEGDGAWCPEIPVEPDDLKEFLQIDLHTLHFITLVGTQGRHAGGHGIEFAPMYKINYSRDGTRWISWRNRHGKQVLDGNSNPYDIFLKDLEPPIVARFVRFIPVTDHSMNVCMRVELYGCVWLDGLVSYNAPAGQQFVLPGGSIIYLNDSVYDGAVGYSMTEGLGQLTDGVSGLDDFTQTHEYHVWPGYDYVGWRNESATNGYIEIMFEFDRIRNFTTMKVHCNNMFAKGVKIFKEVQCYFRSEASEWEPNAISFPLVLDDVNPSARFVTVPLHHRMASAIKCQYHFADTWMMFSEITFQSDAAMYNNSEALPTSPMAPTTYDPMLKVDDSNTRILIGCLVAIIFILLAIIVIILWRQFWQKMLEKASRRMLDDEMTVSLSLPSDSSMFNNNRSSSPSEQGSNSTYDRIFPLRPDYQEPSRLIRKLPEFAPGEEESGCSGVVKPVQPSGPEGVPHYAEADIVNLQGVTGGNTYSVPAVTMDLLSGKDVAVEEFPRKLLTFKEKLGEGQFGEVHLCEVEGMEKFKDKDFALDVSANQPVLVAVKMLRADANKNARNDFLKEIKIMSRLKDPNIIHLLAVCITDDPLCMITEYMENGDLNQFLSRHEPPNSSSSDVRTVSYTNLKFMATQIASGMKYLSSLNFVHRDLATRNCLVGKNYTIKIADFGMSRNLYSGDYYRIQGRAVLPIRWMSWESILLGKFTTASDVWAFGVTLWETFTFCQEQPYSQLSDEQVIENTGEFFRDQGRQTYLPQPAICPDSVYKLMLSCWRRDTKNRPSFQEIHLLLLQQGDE
In the case of `O=C1NC(=O)C(c2cn(CCCn3ccnc3)c3ccccc23)=C1Nc1ccccc1`, the residual activity was 95.6%.

Consider `CNc1cc2c(Nc3cccc(Br)c3)ncnc2cn1`, for which the residual activity turned out to be 100%.

As for `Cc1ccc(Nc2nccc(N(C)c3ccc4c(C)n(C)nc4c3)n2)cc1S(N)(=O)=O`, the residual activity turned out to be 36.2%.

As to `Oc1cccc(-c2nc(N3CCOCC3)c3oc4ncccc4c3n2)c1`, the residual activity was determined as 94.6%.

The next experiment addresses CHUK (human) (UniProt O15111). Described as above. The following applies: compound 0.5 µM; ATP 10 µM.
For `O=C1NC(=O)C(c2cn(CCCn3ccnc3)c3ccccc23)=C1Nc1ccccc1`, the residual activity came to 105%.

Consider `CNc1cc2c(Nc3cccc(Br)c3)ncnc2cn1`, for which the residual activity turned out to be 99%.

With `Cc1ccc(Nc2nccc(N(C)c3ccc4c(C)n(C)nc4c3)n2)cc1S(N)(=O)=O`, the residual activity is 99.4%.

With `Oc1cccc(-c2nc(N3CCOCC3)c3oc4ncccc4c3n2)c1`, the residual activity turned out to be 94.8%.

The next experiment has as its target PRKCB2 (human) (UniProt P05771). Described as above. Conditions: compound 0.5 µM; ATP 10 µM.
On to `O=C1NC(=O)C(c2cn(CCCn3ccnc3)c3ccccc23)=C1Nc1ccccc1`, for which the residual activity worked out at 4.29%.

In the case of `CNc1cc2c(Nc3cccc(Br)c3)ncnc2cn1`, the residual activity worked out at 102%.

As to `Cc1ccc(Nc2nccc(N(C)c3ccc4c(C)n(C)nc4c3)n2)cc1S(N)(=O)=O`, the residual activity is 96.7%.

With `Oc1cccc(-c2nc(N3CCOCC3)c3oc4ncccc4c3n2)c1`, the residual activity was 102%.

For the next experiment, the target named is OXSR1 (human) (UniProt O95747). The description is as above. The following applies: compound 0.5 µM; ATP 10 µM.
`O=C1NC(=O)C(c2cn(CCCn3ccnc3)c3ccccc23)=C1Nc1ccccc1`: the residual activity came out at 97.2%.

Regarding `CNc1cc2c(Nc3cccc(Br)c3)ncnc2cn1`, the residual activity worked out at 88.3%.

For `Cc1ccc(Nc2nccc(N(C)c3ccc4c(C)n(C)nc4c3)n2)cc1S(N)(=O)=O`, the residual activity amounted to 103%.

Take `Oc1cccc(-c2nc(N3CCOCC3)c3oc4ncccc4c3n2)c1`: the residual activity was 93.2%.

A further experiment has as its target ERBB2 (human) (UniProt P04626). The experiment is described as above. The following applies: compound 0.5 µM; ATP 10 µM.
Consider `O=C1NC(=O)C(c2cn(CCCn3ccnc3)c3ccccc23)=C1Nc1ccccc1`, for which the residual activity was found to be 93.6%.

As to `CNc1cc2c(Nc3cccc(Br)c3)ncnc2cn1`, the residual activity is 28.9%.

`Cc1ccc(Nc2nccc(N(C)c3ccc4c(C)n(C)nc4c3)n2)cc1S(N)(=O)=O`: the residual activity came to 103%.

In the case of `Oc1cccc(-c2nc(N3CCOCC3)c3oc4ncccc4c3n2)c1`, the residual activity was found to be 105%.

In a further experiment the target is MARK2 (human) (UniProt Q7KZI7). Described as above. The following applies: compound 0.5 µM; ATP 10 µM.
As to `O=C1NC(=O)C(c2cn(CCCn3ccnc3)c3ccccc23)=C1Nc1ccccc1`, the residual activity came out at 97.1%.

In the case of `CNc1cc2c(Nc3cccc(Br)c3)ncnc2cn1`, the residual activity came to 90.9%.

Consider `Cc1ccc(Nc2nccc(N(C)c3ccc4c(C)n(C)nc4c3)n2)cc1S(N)(=O)=O`, for which the residual activity amounted to 111%.

With `Oc1cccc(-c2nc(N3CCOCC3)c3oc4ncccc4c3n2)c1`, the residual activity stood at 92.9%.

The target of the next experiment is PASK (human) (UniProt Q96RG2). The description is as above. Conditions: compound 0.5 µM; ATP 10 µM.
Consider `O=C1NC(=O)C(c2cn(CCCn3ccnc3)c3ccccc23)=C1Nc1ccccc1`, for which the residual activity was found to be 98%.

For `CNc1cc2c(Nc3cccc(Br)c3)ncnc2cn1`, the residual activity was found to be 86.9%.

With `Cc1ccc(Nc2nccc(N(C)c3ccc4c(C)n(C)nc4c3)n2)cc1S(N)(=O)=O`, the residual activity was found to be 101%.

In the case of `Oc1cccc(-c2nc(N3CCOCC3)c3oc4ncccc4c3n2)c1`, the residual activity came out at 83.8%.

A further experiment deals with CSNK2A2 (human) (UniProt P19784). The experiment is described as above. The following applies: compound 0.5 µM; ATP 10 µM.
For `O=C1NC(=O)C(c2cn(CCCn3ccnc3)c3ccccc23)=C1Nc1ccccc1`, the residual activity stood at 87.6%.

Regarding `Cc1ccc(Nc2nccc(N(C)c3ccc4c(C)n(C)nc4c3)n2)cc1S(N)(=O)=O`, the residual activity worked out at 99.8%.

On to `Oc1cccc(-c2nc(N3CCOCC3)c3oc4ncccc4c3n2)c1`, for which the residual activity stood at 56.2%.

Another experiment deals with CDK1 CCNA2 (human) (UniProt P06493+P20248). Described as above. The following applies: compound 0.5 µM; ATP 10 µM.
In the case of `O=C1NC(=O)C(c2cn(CCCn3ccnc3)c3ccccc23)=C1Nc1ccccc1`, the residual activity turned out to be 88.9%.

As to `CNc1cc2c(Nc3cccc(Br)c3)ncnc2cn1`, the residual activity is 86.5%.

On to `Cc1ccc(Nc2nccc(N(C)c3ccc4c(C)n(C)nc4c3)n2)cc1S(N)(=O)=O`, for which the residual activity is 96.2%.

As to `Oc1cccc(-c2nc(N3CCOCC3)c3oc4ncccc4c3n2)c1`, the residual activity is 84.4%.

The next experiment has as its target AURKB (human) (UniProt Q96GD4). The experiment is described as above. The following applies: compound 0.5 µM; ATP 10 µM.
Turning to `O=C1NC(=O)C(c2cn(CCCn3ccnc3)c3ccccc23)=C1Nc1ccccc1`, the residual activity stood at 95.4%.

For the molecule `CNc1cc2c(Nc3cccc(Br)c3)ncnc2cn1`, the residual activity turned out to be 76.3%.

`Cc1ccc(Nc2nccc(N(C)c3ccc4c(C)n(C)nc4c3)n2)cc1S(N)(=O)=O`: the residual activity was 64.6%.

Turning to `Oc1cccc(-c2nc(N3CCOCC3)c3oc4ncccc4c3n2)c1`, the residual activity was found to be 99.4%.

For the next experiment, the target named is NUAK1 (human) (UniProt O60285). The description is as above. The following applies: compound 0.5 µM; ATP 10 µM.
As for `O=C1NC(=O)C(c2cn(CCCn3ccnc3)c3ccccc23)=C1Nc1ccccc1`, the residual activity is 70.6%.

On to `CNc1cc2c(Nc3cccc(Br)c3)ncnc2cn1`, for which the residual activity was 97.5%.

Take `Cc1ccc(Nc2nccc(N(C)c3ccc4c(C)n(C)nc4c3)n2)cc1S(N)(=O)=O`: the residual activity was 53.4%.

On to `Oc1cccc(-c2nc(N3CCOCC3)c3oc4ncccc4c3n2)c1`, for which the residual activity turned out to be 86.6%.

For another experiment, the target named is CDK6 CCND1 (human) (UniProt Q00534+P24385). Described as above. The following applies: compound 0.5 µM; ATP 10 µM.
On to `O=C1NC(=O)C(c2cn(CCCn3ccnc3)c3ccccc23)=C1Nc1ccccc1`, for which the residual activity was found to be 83.1%.

With `CNc1cc2c(Nc3cccc(Br)c3)ncnc2cn1`, the residual activity came out at 82.2%.

For the molecule `Cc1ccc(Nc2nccc(N(C)c3ccc4c(C)n(C)nc4c3)n2)cc1S(N)(=O)=O`, the residual activity turned out to be 96.5%.

`Oc1cccc(-c2nc(N3CCOCC3)c3oc4ncccc4c3n2)c1`: the residual activity amounted to 95.6%.

A further experiment has as its target MAP2K1 (human) (UniProt Q02750). The description is as above. Conditions: compound 0.5 µM; ATP 10 µM.
For the molecule `O=C1NC(=O)C(c2cn(CCCn3ccnc3)c3ccccc23)=C1Nc1ccccc1`, the residual activity came to 90.6%.
